Like-named read-outs stand apart in the source and are kept apart here.
Legend:
[1] = cited from earlier work
[2] = Non-specific binding to ultrafiltration device in PBS
in vitro [3] = assay type: in vitro ADME; details: bovine, pH 7.4
Description: The volume of serous middle ear fluid (MEF) that accumulates in non-infected chinchillas with Eustachian tube obstruction varies greatly. […] It became necessary to formulate an artificial middle ear fluid (AMEF) that mimics the MEF.

[4] = External ear dosing of 3% moxigel after 10% or 50% IPM pretreatment, MEF microdialysis; details: 3% moxigel 9 mg external ear, mean
in vitro [5] = experiment: in vitro

Q: For `COc1c(N2C[C@@H]3CCCN[C@@H]3C2)c(F)cc2c(=O)c(C(=O)O)cn(C3CC3)c12` [moxifloxacin], which “mean AUC” value ([1]; human, in vivo, po, 400 mg) is on record?
A: Its value is 2170 µg·min/mL.

Q: And the “concentration observed in plasma” value ([1]; humans, oral dose of 400 mg, Owens & Ambrose 2002)?
A: The value was 2000 ng/mL.

Q: What about the “total (bound plus free) maximum concentration in plasma” value ([1]; humans, oral dose of 400 mg) of the same molecule?
A: Its value is 3.1 µg/mL.

Q: What about the fraction unbound [2] of the same molecule?
A: Its fraction unbound is ~1.

Q: And the fraction unbound at 220 μg/ml [2]?
A: The fraction unbound at 220 μg/ml was 0.97 ± 0.026.

Q: And the fraction unbound at 220 μg/ml (in vitro [3]; isolated protein)?
A: Its fraction unbound at 220 μg/ml is 0.84 ± 0.063.

Q: And the fraction unbound at 492 μg/ml (in vitro [3]; isolated protein)?
A: Its fraction unbound at 492 μg/ml is 0.92 ± 0.013.

Q: What about the fraction unbound (in vitro [3]) of the same molecule?
A: Its fraction unbound is 0.84 to 0.92.

Q: And the “Time to reach 10 μg/mL” value [4]?
A: The value was 618 min.

Q: And the elimination rate constant (high intrabulla dose (150 μg))?
A: Its elimination rate constant is 0.0075 ± 0.0010 min⁻¹.

Q: And the elimination rate constant (intrabulla dosing, mean of both doses)?
A: The elimination rate constant was 0.0093 min⁻¹.

Q: What about the elimination rate constant (low intrabulla dose (50 μg)) of the same molecule?
A: The elimination rate constant was 0.0102 ± 0.0040 min⁻¹.

Q: And the fraction unbound at 492 μg/ml (in vitro [5])?
A: The fraction unbound at 492 μg/ml was 0.75 ± 0.02.

— patent publication US20120289541A1 (NOVARTIS AG, priority 2010, published 2012)
